In patent US6791014B2, “Use of HPPD inhibitors as selection agents in plant transformation” (Aventis Cropscience, S.A., priority 2000, dated 2004):

Assays:
Format in all cases: cell-based, soya bean (Glycine max (L.) Merrill)
[1] = system: soya bean embryogenic tissues; assay: Bleaching and growth of soya bean embryogenic tissues on medium with HPPD inhibitor; details: tissues transferred for selection on isoxaflutole, D20 medium, 2 mg/l
Experimental: The same selection method was developed for the HPPD inhibitors, with a D20 medium comprising 2 mg/l of isoxaflutole or 0.5 to 5 mg/l of diketonitriles. The gene for tolerance to HPPD inhibitors which was used as a selection marker is pCH73 or pCH94 represented in FIG. 1. 10 to 15 days prior to the bombardment, the isoxaflutole or the diketonitriles are introduced into the D20 medium, at the abovementioned concentrations, so as to bleach the tissues. After bombardment, the tissues are placed directly in the same D20 medium comprising […] of isoxaflutole or diketonitrile (between 0.5 and 5 mg/l) and transferred into fresh medium every 15 days. After 4 transfers onto the isoxaflutole. green calluses are identified and amplified as described in Example 1. The time required for producing calluses of cells which are competent for the bombardment is 3 and a half months. The selection of the transformed cells (green calluses) occurs approximately 6 months after the initiation of the calluses for the transformation. […] This is due to the fact that the absence of carotenoids, of chlorophyll and of tocopherols is […] to the growth of tissues.

[2] = system: soya bean proliferative embryogenic tissues; assay: Transformation of soya bean embryogenic tissues by particle bombardment, HPPD inhibitor selection on D20 medium (green calluses); details: bleaching before bombardment
Text: The technology used for transforming soya bean has been described by Santarem & Finer: Transformation of soya bean (Glycine max (L.) Merrill) using proliferative embryogenic tissue maintained on semi-solid medium. In Vitro Cell. Dev. Biol. Plant 35 451-455, 1999. It comprises the steps hereinafter.
Immature zygotic embryos (from 3 to 4 mm) are aseptically dissected and placed with the adaxial side upwards in a medium comprising 2.4D (D40).
After culturing for 3 weeks in D40 medium, the cotyledons are transferred onto a D20 medium which comprises essentially the same elements as the D40 medium, with the exception of the 2.4D concentration, which is decreased to […], and the sucrose concentration, which is decreased from 60 g/l to 30 g/l, at pH 5.7.
On this medium, the somatic embryos begin to proliferate in the form of compact aggregates or clumps. The embryogenic clumps are then transferred every two weeks onto a new D20 medium in order to increase the production of tissues. Five or six transfers (approximately 3 months) onto this medium are necessary in order to optimize their competence at transformation. The use of embryogenic tissues which are at an earlier stage produces much poorer results.
Particle bombardment is used for transforming the embryogenic tissues.
Particle preparation: flnctionalized tungsten (M17) particles are prepared according to U.S. Pat. No. 6,068,980. The particles are functionalized by grafting aminated silicones as the vectorization element, and washed in absolute ethanol. 2.5 mg of particles in ethanol are mixed with 3 μg of DNA. After precipitation, the particles are pipetted and used for two shots with a particle gun of the PIG type described by Finer, Vain, Lones and McMullen in: Development of the Particle Inflow Gun for DNA delivery to plant cells. Plant Cell Rep. 11: 323-328, 1992.
Before the bombardment, the tissues are dried under vacuum under a laminar-flow hood for 5 to 10 min, and then placed between two 500 μm screens and bombarded twice.
The same selection method was developed for the HPPD inhibitors, with a D20 medium comprising 2 mg/l of isoxaflutole or 0.5 to 5 mg/l of diketonitriles. The gene for tolerance to HPPD inhibitors which was used as a selection marker is pCH73 or pCH94 represented in FIG. 1.
In order to avoid handling tissues and to gain time, the bombarded calluses are placed on sterile gauze screen fixed with two metal rings which enable direct contact between the embryogenic tissues and the solid medium. The gauze screens are transferred onto fresh media every 15 days until green calluses are observed. It is understood that the principle of callus transfer described above is not limited to soya bean calluses and to selection with hygromycin, but may be used for any method for culturing tissues and cells suspensions which requires frequent changing of culture medium.
10 to 15 days prior to the bombardment, the isoxaflutole or the diketonitriles are introduced into the D20 medium, at the abovementioned concentrations, so as to bleach the tissues. After bombardment, the tissues are placed directly in the same D20 medium comprising […] of isoxaflutole or diketonitrile (between 0.5 and 5 mg/l) and transferred into fresh medium every 15 days. After 4 transfers onto the isoxaflutole. green calluses are identified and amplified as described in Example 1. The time required for producing calluses of cells which are competent for the bombardment is 3 and a half months. The selection of the transformed cells (green calluses) occurs approximately 6 months after the initiation of the calluses for the transformation.

[3] = system: soya bean proliferative embryogenic tissues; assay: as above; details: bleaching after bombardment
[4] = system: soya bean proliferative embryogenic tissues; assay: Transformation of soya bean embryogenic tissues by particle bombardment, HPPD inhibitor selection on FNL medium (green calluses); details: for mean number of green calluses selected per transformation trial: bleached tissues according to the invention, pooled over both plasmids
Text: In order to improve the selection process according to the invention, an attempt was made to decrease the number of tissue transfers and the time required for producing calluses of competent cells and green calluses selected after bombardment. To this effect, the D20 medium previously used was replaced with a modified FNL medium which allows rapid proliferation of the tissues. The FNL medium has been described by Samoylov, Tucker, Thibaud-Nissen & Parrott in: A liquid-medium-based protocol for rapid regeneration from embryogenic soya bean cultures: Plant Cell Rep, 18: 49-54, 1998. This medium makes it possible to produce tissues ready for bombardment more rapidly, greater embryogeny and shorter transfer cycles. Composition of the FNL medium: Na2EDTA: 37.24 mg/l; FeSO4, 7H2O: 27.84 mg/l; MgSO4, 7H2O: 370 mg/l; MnSO4. H2O: 16.9 mg/l; ZnSO4, H2O: 8.6 mg/l; CuSO4. 7H25O: 0.025 mg/l; CaCl2. 2H2O: 440 mg/l; KI: 0.83 mg/l; CoCl2. 6H2O: 0.025 mg/l; KH2PO4: 170 mg/l; H3BO3: 6.2 mg/l; Na2MoO4. 2H2O: 0.25 mg/l; myo-inositol: 100 mg/l; nicotinic acid: 1 mg/l; pyridoxine-HCl: 1 mg/l; thiamine-HCl: 10 mg/l; (NH4)2SO4: 460 mg/l; KNO3: 2820 mg/l; asparagine: 670 mg/l; 1% sucrose; 2.4-D: 10 mg/l; 0.3% […]; pH 5.7. […] The bombardment of tissues bleached with isoxaflutol according to the invention requires only one transfer of calluses before the selected green calluses are produced, against 4 when using the D20 medium. The time required for producing calluses from cells which are competent for the bombardment is 2 months, the transformed green calluses being selected approximately 3 months after the initiation of the calluses for transformation.

[5] = bleaching before bombardment, attempt 1
[6] = bleaching before bombardment, attempt 2
[7] = bleaching before bombardment, attempt 3

**Q.** For `CS(=O)(=O)c1cc(C(F)(F)F)ccc1C(=O)c1cnoc1C1CC1` [isoxaflutole], which “bleaching of the tissues” value [1] is on record?
**A.** The value was “rapidly bleached”.

**Q.** What about the “inhibition of growth of the tissues” value [1] of the same compound?
**A.** The value was “without any inhibition of growth being observed”.

**Q.** Which results are given for “pCH73: plasmid carrying gene for tolerance to HPPD inhibitors: sunflower RuBisCo ssu promoter, optimized transit peptide, HPPDW336, NOS terminator; SEQ ID NO 1”?
**A.** number of green calluses identified ([2]; attempt 1): 0; number of green calluses identified ([2]; attempt 2): 0.5; number of green calluses identified ([2]; attempt 3): 0.25; number of green calluses identified ([3]; attempt 1): 0; number of green calluses identified ([3]; attempt 2): 0; number of green calluses identified ([3]; attempt 3): 0.25; mean number of green calluses selected per transformation trial [4]: 1 per shot; number of green calluses selected ([4]; bleaching after bombardment, attempt 1): 0.25; number of green calluses selected ([4]; bleaching after bombardment, attempt 2): 0; number of green calluses selected [4, 5]: 1; number of green calluses selected [4, 6]: 1.5; number of green calluses selected [4, 7]: 0.33

**Q.** “pCH94: plasmid carrying gene for tolerance to HPPD inhibitors: Arabidopsis histone promoter, TEV enhancer, optimized transit peptide, HPPDW336, NOS terminator; SEQ ID NO 2” was tested. Which “number of green calluses identified” value ([2]; attempt 1) did it give?
**A.** Its value is 0.67.

**Q.** And the “number of green calluses identified” value ([2]; attempt 2)?
**A.** Its value is 1.

**Q.** What about the “number of green calluses identified” value ([2]; attempt 3) of the same compound?
**A.** The value was 2.

**Q.** And the “number of green calluses identified” value ([3]; attempt 1)?
**A.** The value was 0.67.

**Q.** And the “number of green calluses identified” value ([3]; attempt 2)?
**A.** The value was 0.33.

**Q.** What about the “number of green calluses identified” value ([3]; attempt 3) of the same compound?
**A.** The value was 0.25.

**Q.** And the “mean number of green calluses selected per transformation trial” value [4]?
**A.** Its value is 1 per shot.

**Q.** What about the “number of green calluses selected” value [4, 5] of the same compound?
**A.** Its value is 1.

**Q.** What about the “number of green calluses selected” value [4, 6] of the same compound?
**A.** The value was 1.

**Q.** And the “number of green calluses selected” value [4, 7]?
**A.** The value was 0.33.

**Q.** And the “number of green calluses selected” value ([4]; bleaching before bombardment, attempt 4)?
**A.** The value was 1.5.
